# Results taken from patent US20130045483A1, “YEAST CELLS EXPRESSING AMYLOID BETA AND USES THEREFOR” (priority 2011, published 2013).
# Assays:
# [1] = test system: ssAβ 1-42 strain; assay: Clioquinol rescue in liquid culture (Bioscreen OD600 growth); assay type: cell-based, yeast; details: for growth of the Aβ expressing strain: inducing (galactose) media, various concentrations; for growth at the optimal concentration compared with control strain: control strain expressing YFP
# Method: (§1) To further test the effect of clioquinol, a control strain and a strain expressing toxic levels of Aβ were grown in liquid culture with various concentrations of the compound.
# Yeast strains were grown overnight to saturation in synthetic medium with glucose as the carbon source after inoculation from a colony. These cultures were used to inoculate raffinose cultures. Raffinose cultures in log phase growth (OD600 0.7-0.9) were diluted to an OD600 of 0.03 in synthetic medium with galactose as the carbon source, and […] of the cell suspension was distributed to each well of a Bioscreen plate. […] of clioquinol (Sigma C8133, ˜95%), dissolved in DMSO at 100 times the final intended concentration, was added to each well. A Labsystems Bioscreen C was used to maintain the plate at 30 degrees C. and make OD600 measurements on each well at 10-minute intervals over a period of approximately three days. Each condition was performed in duplicate.
# [2] = test system: GAL controlled YFP; assay: GAL1-induced expression, flow cytometry of GAL controlled YFP; assay type: cell-based, yeast; details: flow cytometry of GAL controlled YFP (data not shown)
# Method: as §1
# A strain carrying an integrated YFP was transformed with the putative Aβ suppressors. The resulting strains were grown in glucose media in a 96 well format, diluted into the various inducing media (galactose, glucose+1 uM estradiol, glycerol+1 uM estradiol) [5 ul culture added to 120 ul media], and incubated over night at 30° C. with mild shaking. These overnight cultures were diluted 20 fold into water and YFP levels were measured using a Guava flow cytometer. Each strain was measured 3 times and 5000 cells were counted for each well. The whole experiment was repeated 3 times. Values are averages of these 3 experiments and reported in percent of the vector control strain YFP levels.
structure (smiles),measurement,setting,value
Oc1c(I)cc(Cl)c2cccnc12 [clioquinol],toxicity at higher concentrations,"[1]; higher concentrations, ssAβ 1-42 strain and YFP control strain",toxic to both strains
same,growth of the Aβ expressing strain,[1],rescued growth levels in a dose dependent manner
same,growth of the Aβ expressing strain,[1]; listed as Clioquinol,improved the growth of the Aβ expressing strain in a dose dependent manner
same,growth at the optimal concentration compared with control strain,[1],restored growth levels to those of a control strain expressing YFP
same,growth at the optimal concentration compared with control strain,[1]; listed as Clioquinol,nearly as robust as that of the control strain
same,effect on GAL1-induced expression,[2],did not diminish GAL1-induced expression
